Assays:
Type in all cases: in vivo
[1] = test system: redroot pigweed (Amaranthus retroflexus, AMARE); experiment: Pre-emerge test, greenhouse herbicide activity screening; conditions: phytotoxicity rating 0-100, 14 days after application
Method in brief: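 Compounds in acetone were track-sprayed at 187 l/ha, 15–1000 g ai/ha, onto sandy loam pots. Pre-emerge seeds were sown one day before spraying, with surface watering afterwards. Post-emerge plants were at the 2–3 leaf stage and sprayed with 0.25% v/v non-ionic surfactant. Injury was rated 0–100 at 14 days.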

[2] = test system: barnyardgrass (Echinochloa crus-galli, ECHCG); experiment: as above; conditions: phytotoxicity rating 0-100, 14 days after application
Method in brief: (§1)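 Compounds in acetone were track-sprayed at 15-1000 g ai/ha (187 l/ha) on sandy loam pots: pre-emerge one day after seeding, post-emerge at 2-3 leaf stage with 0.25% v/v non-ionic surfactant. Phytotoxicity was rated 14 days later on a 0 (no damage) to 100 (complete death) scale.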

[3] = test system: green foxtail (Setaria viridis, SETVI); experiment: as above; conditions: phytotoxicity rating 0-100, 14 days after application
Method in brief: as §1

[4] = test system: ivyleaf morningglory (Ipomoea hederacea, IPOHE); experiment: as above; conditions: phytotoxicity rating 0-100, 14 days after application
Method in brief: as §1

[5] = test system: johnsongrass (Sorghum halepense, SORHA); experiment: as above; conditions: phytotoxicity rating 0-100, 14 days after application
Method in brief: as §1

[6] = test system: lambsquarters (Chenopodium album, CHEAL); experiment: as above; conditions: phytotoxicity rating 0-100, 14 days after application
Method in brief: as §1

[7] = test system: large crabgrass (Digitaria sanguinalis, DIGSA); experiment: as above; conditions: phytotoxicity rating 0-100, 14 days after application
Method in brief: as §1

[8] = test system: sicklepod (Cassia obtusifolia, CASOB); experiment: as above; conditions: phytotoxicity rating 0-100, 14 days after application
Method in brief: as §1

[9] = test system: velvetleaf (Abutilon theophrasti, ABUTH); experiment: as above; conditions: phytotoxicity rating 0-100, 14 days after application
Method in brief: as §1

[10] = test system: field corn (Zea mays L., var. Dekalb 535, CORN); experiment: Pre-emerge test, crop safety; conditions: crop damage rating 0-100, 14 days after application
Method in brief: (§2)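 Herbicidal damage is scored 0 (none) to 100 (complete plant death) two weeks after a simulated field spray. Rates span 15–1000 g ai/ha, delivered in acetone at 187 l/ha. For post-emergence treatments, plants have 2–3 leaves and the spray carries 0.25% v/v non-ionic surfactant.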

[11] = test system: upland rice (Oryza sp., var. Tebonnet, RICE); experiment: Pre-emerge test, crop safety; conditions: crop damage rating 0-100, 14 days after application
Method in brief: as §2

[12] = test system: barnyardgrass (Echinochloa crus-galli, ECHCG); experiment: Post-emerge test, greenhouse herbicide activity screening; conditions: post-emerge, 14 days after application, rating scale 0-100
Method in brief: (§3)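 Visual ratings on a 0-100 scale (0 no damage, 100 all plants dead) were taken at 14 days after treatment. Rates of 15-1000 g ai/ha in acetone, 187 l/ha, were sprayed onto soil one day after planting (pre-emerge) or onto 2-3 leaf plants with 0.25% v/v surfactant (post-emerge).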

[13] = test system: green foxtail (Setaria viridis, SETVI); experiment: as above; conditions: post-emerge, 14 days after application, rating scale 0-100
Method in brief: as §3

[14] = test system: ivyleaf morningglory (Ipomoea hederacea, IPOHE); experiment: as above; conditions: post-emerge, 14 days after application, rating scale 0-100
Method in brief: as §3

[15] = test system: johnsongrass (Sorghum halepense, SORHA); experiment: as above; conditions: post-emerge, 14 days after application, rating scale 0-100
Method in brief: as §3

[16] = test system: lambsquarters (Chenopodium album, CHEAL); experiment: as above; conditions: post-emerge, 14 days after application, rating scale 0-100
Method in brief: as §3

[17] = test system: large crabgrass (Digitaria sanguinalis, DIGSA); experiment: as above; conditions: post-emerge, 14 days after application, rating scale 0-100
Method in brief: as §3

[18] = test system: redroot pigweed (Amaranthus retroflexus, AMARE); experiment: as above; conditions: post-emerge, 14 days after application
Method in brief: as §3

[19] = test system: sicklepod (Cassia obtusifolia, CASOB); experiment: as above; conditions: post-emerge, 14 days after application, rating scale 0-100
Method in brief: as §3

[20] = test system: velvetleaf (Abutilon theophrasti, ABUTH); experiment: as above; conditions: post-emerge, 14 days after application, rating scale 0-100
Method in brief: as §3

[21] = test system: field corn (Zea mays L., var. Dekalb 535, CORN); experiment: Post-emerge test, crop safety; conditions: post-emerge, 14 days after application, rating scale 0-100
Method in brief: as §1

[22] = test system: upland rice (Oryza sp., var. Tebonnet, RICE); experiment: Post-emerge test, crop safety; conditions: post-emerge, 14 days after application, rating scale 0-100
Method in brief: as §1

Compound: Cn1c(C(F)(F)F)cc(=O)n(-c2c(F)cc(Cl)c(Oc3ncccc3[N+](=O)[O-])c2NC(=O)c2ccc3ccccc3c2)c1=O [2-199]
- Pre-emerge Herbicidal Activity AMARE ([1]; 63 g ai/ha): 100
- Pre-emerge Herbicidal Activity AMARE ([1]; 250 g ai/ha): 100
- Pre-emerge Herbicidal Activity ECHCG ([2]; 63 g ai/ha): 99
- Pre-emerge Herbicidal Activity ECHCG ([2]; 250 g ai/ha): 100
- Pre-emerge Herbicidal Activity SETVI ([3]; 63 g ai/ha): 100
- Pre-emerge Herbicidal Activity SETVI ([3]; 250 g ai/ha): 100
- Pre-emerge Herbicidal Activity IPOHE ([4]; 63 g ai/ha): 100
- Pre-emerge Herbicidal Activity IPOHE ([4]; 250 g ai/ha): 100
- Pre-emerge Herbicidal Activity SORHA ([5]; 63 g ai/ha): 100
- Pre-emerge Herbicidal Activity SORHA ([5]; 250 g ai/ha): 100
- Pre-emerge Herbicidal Activity CHEAL ([6]; 63 g ai/ha): 100
- Pre-emerge Herbicidal Activity CHEAL ([6]; 250 g ai/ha): 100
- Pre-emerge Herbicidal Activity DIGSA ([7]; 63 g ai/ha): 100
- Pre-emerge Herbicidal Activity DIGSA ([7]; 250 g ai/ha): 100
- Pre-emerge Herbicidal Activity CASOB ([8]; 63 g ai/ha): 100
- Pre-emerge Herbicidal Activity CASOB ([8]; 250 g ai/ha): 100
- Pre-emerge Herbicidal Activity ABUTH ([9]; 63 g ai/ha): 100
- Pre-emerge Herbicidal Activity ABUTH ([9]; 250 g ai/ha): 100
- Pre-emerge Herbicidal Activity CORN ([10]; 63 g ai/ha): 95
- Pre-emerge Herbicidal Activity CORN ([10]; 250 g ai/ha): 100
- Pre-emerge Herbicidal Activity RICE ([11]; 63 g ai/ha): 99
- Pre-emerge Herbicidal Activity RICE ([11]; 250 g ai/ha): 100
- phytotoxicity rating ECHCG ([12]; 63 g ai/ha): 60
- phytotoxicity rating ECHCG ([12]; 250 g ai/ha): 100
- phytotoxicity rating SETVI ([13]; 63 g ai/ha): 50
- phytotoxicity rating SETVI ([13]; 250 g ai/ha): 90
- phytotoxicity rating IPOHE ([14]; 63 g ai/ha): 100
- phytotoxicity rating IPOHE ([14]; 250 g ai/ha): 100
- phytotoxicity rating SORHA ([15]; 63 g ai/ha): 40
- phytotoxicity rating SORHA ([15]; 250 g ai/ha): 95
- phytotoxicity rating CHEAL ([16]; 63 g ai/ha): 100
- phytotoxicity rating CHEAL ([16]; 250 g ai/ha): 100
- phytotoxicity rating DIGSA ([17]; 63 g ai/ha): 30
- phytotoxicity rating DIGSA ([17]; 250 g ai/ha): 95
- phytotoxicity rating AMARE ([18]; 63 g ai/ha, rating scale 0-100 (0 no damage, 100 complete death)): 95
- phytotoxicity rating AMARE ([18]; 250 g ai/ha, rating scale 0-100): 100
- phytotoxicity rating CASOB ([19]; 63 g ai/ha): 100
- phytotoxicity rating CASOB ([19]; 250 g ai/ha): 100
- phytotoxicity rating ABUTH ([20]; 63 g ai/ha): 100
- phytotoxicity rating ABUTH ([20]; 250 g ai/ha): 100
- phytotoxicity rating CORN (crop damage) ([21]; 63 g ai/ha): 30
- phytotoxicity rating CORN (crop damage) ([21]; 250 g ai/ha): 90
- phytotoxicity rating RICE (crop damage) ([22]; 63 g ai/ha): 80
- phytotoxicity rating RICE (crop damage) ([22]; 250 g ai/ha): 90

From patent publication US6355799B1, “Substituted benzene compounds, process for their preparation, and herbicidal and defoliant compositions containing them” (ISK Americas Incorporated, priority 1997, dated 2002)
